# Measured values from patent publication US20250163104A1, “MACROCYCLIC IMMUNOMODULATORS” (priority 2021, published 2025).
# *1 amine or outer side, *2 acyl side, *3 side chain or, on linkers, in order; H or OH if unused. Where a SMILES comes first, the peptide text is derived from it. Bridges are numbered along the chain shown (N, C = ends). [ ]: non-standard residue; d: D form. The star is where a group is joined. Ala(6-(2-MePh)pyridin-3-yl) = Cc1ccccc1-c1ccc(C[C@H](N)C(=O)O)cn1; X5 = O=C([C@H](Cc1ccc2ncccc2c1)N[*:1])[*:2]; X8 = O=C([C@H](Cc1ccc2ccncc2c1)N[*:1])[*:2]; Bip = N[C@@H](Cc1ccc(-c2ccccc2)cc1)C(=O)O; 1Nal = N[C@@H](Cc1cccc2ccccc12)C(=O)O; 2Nal = N[C@@H](Cc1ccc2ccccc2c1)C(=O)O; αMeF = C[C@](N)(Cc1ccccc1)C(=O)O; αMeE = C[C@](N)(CCC(=O)O)C(=O)O; Cha = N[C@@H](CC1CCCCC1)C(=O)O; Cit = NC(=O)NCCC[C@H](N)C(=O)O; Carboxymethyl = O=C(O)C*; Orn = NCCC[C@H](N)C(=O)O; Dab = NCC[C@H](N)C(=O)O; Dap = NC[C@H](N)C(=O)O
# Biological target: T1, human PD-1 / PD-L1-Ig binding on Jurkat cell line over-expressing human PD-1 (Jurkat-PD-1) (Homo sapiens, UniProt Q15116)
# T1 construct: expressed in transfected cells; host or cells: Jurkat
# Test: Jurkat-PD-1 Cell Binding High-Content Screening Assay (CBA)
# Type: cell-based
# Conditions: Jurkat-PD-1 cells, PE-labeled PD-L1-Ig 20 nM final; read-out: Jurkat HPD1_PDL1 IC50
# How it was run: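 Cell-bound PE-labeled PD-L1-Ig (20 nM final, 1 h) measured by high-content imaging after fixation and Hoechst 33342 counterstain. Compound was applied first for 2 h at 37° C. to Jurkat cells over-expressing human PD-1 in DMEM with 10% FCS.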
# T1 sequence (Q15116 25-288): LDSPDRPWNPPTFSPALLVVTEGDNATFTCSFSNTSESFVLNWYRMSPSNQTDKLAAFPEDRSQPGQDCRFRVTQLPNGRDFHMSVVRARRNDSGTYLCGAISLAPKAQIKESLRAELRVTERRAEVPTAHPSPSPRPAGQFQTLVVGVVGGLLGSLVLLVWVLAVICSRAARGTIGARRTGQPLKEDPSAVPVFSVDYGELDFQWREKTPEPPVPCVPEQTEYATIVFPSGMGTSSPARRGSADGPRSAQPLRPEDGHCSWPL
row,IC50,SMILES
1,131 nM,Cc1ccccc1-c1ccc(C[C@@H]2NC(=O)[C@H](CN)NC(=O)CSC[C@@H](C(=O)N[C@@H](C)C(N)=O)NC(=O)[C@H]([C@@H](C)O)NC(=O)[C@H](C(C)C)NC(=O)[C@H](CC3CCCCC3)NC(=O)[C@H](CCN)NC(=O)[C@@H](CC(C)C)NC(=O)[C@H](CCCN)NC(=O)[C@H](CCCNC(N)=O)NC(=O)[C@H](Cc3ccc(-c4ccccc4)cc3)NC(=O)[C@H](C(C)C)NC(=O)[C@H](Cc3c[nH]c4ccccc34)NC(=O)[C@H](CC(=O)O)NC2=O)cn1 [Compound 2135] ({CH2CO}-[Dap][Ala(6-(2-MePh)pyridin-3-yl)]DWV[Bip][Cit][Orn][dL][Dab][Cha]VTCA-NH2; thioether N-14)
2,814 nM,CC(C)C[C@H]1NC(=O)[C@H](CCCN)NC(=O)[C@H](CCCNC(N)=O)NC(=O)[C@H](Cc2ccc(-c3ccccc3)cc2)NC(=O)[C@H](C(C)C)NC(=O)[C@H](Cc2c[nH]c3ccccc23)NC(=O)[C@H](CC(=O)O)NC(=O)[C@](C)(CCC(=O)O)NC(=O)[C@H](CN)NC(=O)CSC[C@@H](C(=O)N[C@@H](C)C(N)=O)NC(=O)[C@H]([C@@H](C)O)NC(=O)[C@H](C(C)C)NC(=O)[C@H](CC2CCCCC2)NC(=O)[C@H](CCN)NC1=O [Compound 2136] ({CH2CO}-[Dap][αMeE]DWV[Bip][Cit][Orn][dL][Dab][Cha]VTCA-NH2; thioether N-14)
3,11.4 nM,CC(C)C[C@H]1NC(=O)[C@H](CCCN)NC(=O)[C@H](CCCNC(N)=O)NC(=O)[C@H](Cc2ccc(-c3ccccc3)cc2)NC(=O)[C@H](C(C)C)NC(=O)[C@H](Cc2c[nH]c3ccccc23)NC(=O)[C@H](CC(=O)O)NC(=O)[C@](C)(Cc2ccccc2)NC(=O)[C@H](CN)NC(=O)CSC[C@@H](C(=O)N[C@@H](C)C(N)=O)NC(=O)[C@H]([C@@H](C)O)NC(=O)[C@H](C(C)C)NC(=O)[C@H](CC2CCCCC2)NC(=O)[C@H](CCN)NC1=O [Compound 2137] ({CH2CO}-[Dap][αMeF]DWV[Bip][Cit][Orn][dL][Dab][Cha]VTCA-NH2; thioether N-14)
4,71.6 nM,Cc1ccc(C[C@@H]2NC(=O)[C@H](CC(=O)O)NC(=O)[C@H](Cc3ccc(OCC(=O)O)cc3)NC(=O)[C@H](CN)NC(=O)CSC[C@@H](C(=O)N[C@@H](C)C(N)=O)NC(=O)[C@H]([C@@H](C)O)NC(=O)[C@H](C(C)C)NC(=O)[C@H](CC3CCCCC3)NC(=O)[C@H](CCN)NC(=O)[C@@H](CC(C)C)NC(=O)[C@H](CCCN)NC(=O)[C@H](CCC(=O)O)NC(=O)[C@H](Cc3ccc(-c4ccccc4)cc3)NC(=O)[C@H](C(C)C)NC2=O)cc1 [Compound 2139]
5,478 nM,COc1ccc(C[C@@H]2NC(=O)[C@H](CC(=O)O)NC(=O)[C@H](Cc3ccc(OCC(=O)O)cc3)NC(=O)[C@H](CN)NC(=O)CSC[C@@H](C(=O)N[C@@H](C)C(N)=O)NC(=O)[C@H]([C@@H](C)O)NC(=O)[C@H](C(C)C)NC(=O)[C@H](CC3CCCCC3)NC(=O)[C@H](CCN)NC(=O)[C@@H](CC(C)C)NC(=O)[C@H](CCCN)NC(=O)[C@H](CCC(=O)O)NC(=O)[C@H](Cc3ccc(-c4ccccc4)cc3)NC(=O)[C@H](C(C)C)NC2=O)cc1 [Compound 2140] ({CH2CO}-[Dap]Y(Carboxymethyl)DY(Me)V[Bip]E[Orn][dL][Dab][Cha]VTCA-NH2; thioether N-14)
6,26.1 nM,CC(C)C[C@H]1NC(=O)[C@H](CCCN)NC(=O)[C@H](CCC(=O)O)NC(=O)[C@H](Cc2ccc(-c3ccccc3)cc2)NC(=O)[C@H](C(C)C)NC(=O)[C@H](Cc2ccc(O)cc2)NC(=O)[C@H](CC(=O)O)NC(=O)[C@H](Cc2ccc(OCC(=O)O)cc2)NC(=O)[C@H](CN)NC(=O)CSC[C@@H](C(=O)N[C@@H](C)C(N)=O)NC(=O)[C@H]([C@@H](C)O)NC(=O)[C@H](C(C)C)NC(=O)[C@H](CC2CCCCC2)NC(=O)[C@H](CCN)NC1=O [Compound 2141] ({CH2CO}-[Dap]Y(Carboxymethyl)DYV[Bip]E[Orn][dL][Dab][Cha]VTCA-NH2; thioether N-14)
7,543 nM,CC(C)C[C@H]1NC(=O)[C@H](CCCN)NC(=O)[C@H](CCC(=O)O)NC(=O)[C@H](Cc2ccc(-c3ccccc3)cc2)NC(=O)[C@H](C(C)C)NC(=O)[C@H](Cc2ccc3ccccc3c2)NC(=O)[C@H](CC(=O)O)NC(=O)[C@H](Cc2ccc(OCC(=O)O)cc2)NC(=O)[C@H](CN)NC(=O)CSC[C@@H](C(=O)N[C@@H](C)C(N)=O)NC(=O)[C@H]([C@@H](C)O)NC(=O)[C@H](C(C)C)NC(=O)[C@H](CC2CCCCC2)NC(=O)[C@H](CCN)NC1=O [Compound 2142] ({CH2CO}-[Dap]Y(Carboxymethyl)D[2Nal]V[Bip]E[Orn][dL][Dab][Cha]VTCA-NH2; thioether N-14)
8,139 nM,CC(C)C[C@H]1NC(=O)[C@H](CCCN)NC(=O)[C@H](CCC(=O)O)NC(=O)[C@H](Cc2ccc(-c3ccccc3)cc2)NC(=O)[C@H](C(C)C)NC(=O)[C@H](Cc2c[nH]c3ccc(C#N)cc23)NC(=O)[C@H](CC(=O)O)NC(=O)[C@H](Cc2ccc(OCC(=O)O)cc2)NC(=O)[C@H](CN)NC(=O)CSC[C@@H](C(=O)N[C@@H](C)C(N)=O)NC(=O)[C@H]([C@@H](C)O)NC(=O)[C@H](C(C)C)NC(=O)[C@H](CC2CCCCC2)NC(=O)[C@H](CCN)NC1=O [Compound 2143]
9,785 nM,CC(C)C[C@H]1NC(=O)[C@H](CCCN)NC(=O)[C@H](CCC(=O)O)NC(=O)[C@H](Cc2ccc(-c3ccccc3)cc2)NC(=O)[C@H](C(C)C)NC(=O)[C@H](Cc2ccc3ccncc3c2)NC(=O)[C@H](CC(=O)O)NC(=O)[C@H](Cc2ccc(OCC(=O)O)cc2)NC(=O)[C@H](CN)NC(=O)CSC[C@@H](C(=O)N[C@@H](C)C(N)=O)NC(=O)[C@H]([C@@H](C)O)NC(=O)[C@H](C(C)C)NC(=O)[C@H](CC2CCCCC2)NC(=O)[C@H](CCN)NC1=O [Compound 2144] ({CH2CO}-[Dap]Y(Carboxymethyl)D[X8]V[Bip]E[Orn][dL][Dab][Cha]VTCA-NH2; thioether N-14)
10,469 nM,CC(C)C[C@H]1NC(=O)[C@H](CCCN)NC(=O)[C@H](CCC(=O)O)NC(=O)[C@H](Cc2ccc(-c3ccccc3)cc2)NC(=O)[C@H](C(C)C)NC(=O)[C@H](Cc2ccc3ncccc3c2)NC(=O)[C@H](CC(=O)O)NC(=O)[C@H](Cc2ccc(OCC(=O)O)cc2)NC(=O)[C@H](CN)NC(=O)CSC[C@@H](C(=O)N[C@@H](C)C(N)=O)NC(=O)[C@H]([C@@H](C)O)NC(=O)[C@H](C(C)C)NC(=O)[C@H](CC2CCCCC2)NC(=O)[C@H](CCN)NC1=O [Compound 2145] ({CH2CO}-[Dap]Y(Carboxymethyl)D[X5]V[Bip]E[Orn][dL][Dab][Cha]VTCA-NH2; thioether N-14)
11,10.6 nM,CC(C)C[C@H]1NC(=O)[C@H](CCCN)NC(=O)[C@H](CCC(=O)O)NC(=O)[C@H](Cc2ccc(-c3ccccc3)cc2)NC(=O)[C@H](C(C)C)NC(=O)[C@H](Cc2cccc3ccccc23)NC(=O)[C@H](CC(=O)O)NC(=O)[C@H](Cc2ccc(OCC(=O)O)cc2)NC(=O)[C@H](CN)NC(=O)CSC[C@@H](C(=O)N[C@@H](C)C(N)=O)NC(=O)[C@H]([C@@H](C)O)NC(=O)[C@H](C(C)C)NC(=O)[C@H](CC2CCCCC2)NC(=O)[C@H](CCN)NC1=O [Compound 2146] ({CH2CO}-[Dap]Y(Carboxymethyl)D[1Nal]V[Bip]E[Orn][dL][Dab][Cha]VTCA-NH2; thioether N-14)
